Consider three cell lines from the supplement of paper PMC10307832.

Compound in one assay: CC(C)(C)c1nc(-c2cccc(NS(=O)(=O)c3c(F)cccc3F)c2F)c(-c2ccnc(N)n2)s1 [Dabrafenib]
Description: relative viability (nuclei count vs DMSO), 5 days (fraction); higher = more cells survive. In short, it runs like this: (§1)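 On vehicle-anchored 1536-well plates, lung cancer cell lines held overnight at 37 °C were pinned with five library-drug doses (not always all listed) spaced by √10. With no medium change over 5 days, they were then fixed, permeabilised and Hoechst-stained in one step and imaged at 4×. MetaXpress counted nuclei, and viability is the median across plates of treated-well over vehicle-well nuclei. Acceptance needed control CV below 25% and at least one doubling.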

Compound in another assay: NC(=O)c1ccc(N(C(N)=O)c2c(F)cccc2F)nc1-c1ccc(F)cc1F [VX-702]
Described as above. In short, it runs like this: as §1

Consider EMC-BAC-2, for which the relative viability was 1.04 with Dabrafenib (0.009487 µM); 0.706 with Dabrafenib (0.03 µM); 0.701 in the assay with Dabrafenib (0.09487 µM); 0.751 with Dabrafenib (0.3 µM); 1 in the assay with VX-702 (0.02 µM); 0.943 with VX-702 (0.2 µM). Also, the relative viability stood at 0.98 with VX-702 (0.6325 µM) and 0.842 in the assay with VX-702 (2 µM).

As to NCI-H1355, the relative viability in the assay with Dabrafenib (0.009487 µM) stood at 0.986; in the assay with Dabrafenib (0.03 µM), 0.986; with Dabrafenib (0.09487 µM), 0.739; with Dabrafenib (0.3 µM) it was 1.04; with VX-702 (0.02 µM) it was 1.07; with VX-702 (0.2 µM) it was 0.997. For the same cell line, the relative viability amounted to 1.02 with VX-702 (0.6325 µM) and 1.08 with VX-702 (2 µM).

In the case of NCI-H3122, the relative viability was found to be 0.981 with Dabrafenib (0.003 µM); 1.05 with Dabrafenib (0.009487 µM); 1.09 with Dabrafenib (0.03 µM); 0.991 with Dabrafenib (0.09487 µM); 1.06 in the assay with Dabrafenib (0.3 µM); 1.01 with VX-702 (0.02 µM). The relative viability with VX-702 (0.2 µM) was 0.979; with VX-702 (0.6325 µM), 1; in the assay with VX-702 (2 µM) it was 1.
